Literature values, collected in patent US11591275B2, “Smart release potash fertilizer granules” (RYNAN TECHNOLOGIES PTE LTD, priority 2018, dated 2023).

Settings: for pKa: of the organic acid in the extended release layer

Row | SMILES | pKa* of associated acids (acid associated with the anion pendant group of the anti-caking copolymer) | pKa
1 | O=C(O)Cc1cccc2ccccc12 [1-Naphthalene Acetic Acid, 1-Naphthalene acetic acid] | 4.23 | 4.23
2 | O=C(O)C(=O)O [Oxalic Acid] | – | 4.10
